Converted amounts (≈) assume the structure as drawn. “Also recorded” adds a separate entry of the source. Values belong to the molecule of their own block, whether it stands above or below them.
Columns and labels:
[1] = Solubility measurement (shaking 200 rpm at 25° C., HPLC); format: physicochemical
[2] = Hygroscopicity by dynamic vapor sorption (DVS); format: physicochemical; conditions: for Hygroscopicity (in words): DVS, 80% RH
[3] = Long-term and accelerated stability studies (impurities, optical purity, XRPD, water content); format: physicochemical; conditions: for Total impurities T0: initial
[4] = Pharmacokinetic comparison of Forms A-H in rats (Example 14); format: in vivo; conditions: rat, plasma
[5] = system: RAF family of serine/threonine kinases; conditions: especially against BRAF/CRAF dimers; cited from earlier work
[6] = Long-term and accelerated stability studies (impurities, optical purity, XRPD, water content); format: physicochemical
Method: Chiral purity and polymorph results had no changes when stored at 25° C./60% RH for up to 24 months.

[7] = Pharmacokinetic comparison of Forms A-H in rats (Example 14); format: in vivo
Description: Pharmacokinetic Comparison of Form a, B, C, D, E, F, G and H in Rats
(§1) Powder of Form A with particle sizes of D90=62.4 μm after micronization. The material content (purity) was not less than 98.0%.
Powder of Form B with particle sizes of D90=69.9 μm, D10=3.5 um, […] after micronization. The material content (purity) was not less than 98.0%.
Powders of Forms C, D, E, F, G and H with particle sizes of D90<600 μm after micronization. The material content (purity) was not less than 98.0%.
Rats, male and female, were used in this study.
An appropriate amount of each substance was weighted and was dispersed in 0.5% sodium carboxymethyl cellulose. A suspension was prepared at the desired concentration of Compound 1 for each substance. All the doses and concentrations of Compound 1 were calculated with freebase in this study.
(§2) The dosing solutions were freshly prepared prior to dose administration. The actual body weights and actual volume injected were recorded accordingly. The rats were fasted overnight and were allowed to intake food four hours after dosing. Each suspension was administrated orally to rats at a dose ranged from 0.5 to 5 mg/kg. Blood samples (˜1.0 mL) were collected at pre-dose and at different times up to 36 hours post-dosing via cephalic vein plexus. Whole blood was processed by centrifugation and plasma samples were collected and kept at freezer prior to analysis. Plasma samples were processed by protein precipitation. Concentrations of Compound 1 in the plasma samples were determined using a validated liquid chromatography-tandem mass spectrometry (LC-MS/MS) method. The plasma concentration-time data were analyzed using a non-compartmental model using Pharsight WinNonlin.

[8] = Pharmacokinetic comparison of Form A and Form F in dogs (Example 15); format: in vivo, Beagle dogs; conditions: for half-life: read-out: T½ (converted)
Method: Pharmacokinetic Comparison of Form A and Form F in Dogs
as §1
Powder of Form F with particle sizes of D90<200 μm after micronization. The material content (purity) was not less than 98.0%.
Beagle dogs, male and female, were used in this study.
An appropriate amount of each substance was weighed and was disperse in 0.5% sodium carboxymethyl cellulose. A suspension was prepared at the desired concentration of Compound 1 for each substance. All the doses and concentrations of Compound 1 were calculated with freebase in this study.
as §2, with “dogs” for “rats”

[9] = 25° C./60% RH up to 24 months and 40° C./75% RH up to 6 months
[10] = both sexes, beagle, dog, plasma, 0.5 mg/kg, 0.5 mpk IV
[11] = both sexes, beagle, dog, plasma, 5 mg/kg, 5 mpk PO
[12] = both sexes, iv, 1 mg/kg, 1 mpk IV

- Solubility (in words) ([1]; crystalline or neat amorphous form, water, 0.1 HCl, buffer solutions of different pH): poor solubility
- Weight gain (water gain) by DVS ([2]; 80% relative humidity): 4.96%
- Hygroscopicity (in words) [2]: moderately hygroscopic
- Optical purity change ([3]; crystalline form, 25° C./60% RH up to 12 months and 40° C./75% RH up to 6 months): no optical purity changes
- bioavailability ([4]; po, 5 mpk, crystalline form, preliminary DMPK studies): ~20%
SMILES: O=C1CCc2c(Oc3ccc4c(c3)[C@H]3[C@H](NC(=O)Nc5cc(F)c(F)cc5F)[C@H]3O4)ccnc2N1 [Compound 1, 1-((1S,1aS,6bS)-5-((7-oxo-5,6,7,8-tetrahydro-1,8-naphthyridin-4-yl)oxy)-1a,6b-dihydro-1H-cyclopropa[b]benzofuran-1-yl)-3-(2,4,5-trifluorophenyl)urea]
- Chemical purity change ([3]; crystalline form, 25° C./60% RH up to 12 months): does not show any significant chemical purity change
- Inhibitory activity (in words) [5]: potent inhibitory activity

- solubility ([1]; 0.1N HCl, simulated gastric fluid): 20 µg/mL (≈ 41.5 µM)
- solubility ([1]; 5% HTAB, aqueous with cosolvent or surfactant or cyclodextrin): 960 µg/mL (≈ 1990 µM)
- solubility ([1]; 5% Pluronic F68, aqueous with cosolvent or surfactant or cyclodextrin): < 0.1 µg/mL
- solubility ([1]; 5% SLS, aqueous with cosolvent or surfactant or cyclodextrin): 1000 µg/mL (≈ 2070 µM)
- solubility ([1]; 20% hydroxypropyl-β-cyclodextrin (HP-β-CD), aqueous with cosolvent or surfactant or cyclodextrin): 550 µg/mL (≈ 1140 µM)
- solubility ([1]; 20% sulfobutyl ether-β-cyclodextrin (SBE-β-CD), aqueous with cosolvent or surfactant or cyclodextrin): 550 µg/mL (≈ 1140 µM)
- solubility at 2 h ([1]; DMA, organic solvent or mixture): > 372 mg/mL
- solubility at 2 h ([1]; DMSO, organic solvent or mixture): > 95.4 mg/mL
- solubility ([1]; n-heptane, organic solvent or mixture): < 0.1 µg/mL
- solubility ([1]; pH 1.2 buffer solution, pH 1.2, simulated gastric fluid): 15 µg/mL (≈ 31.1 µM)
- solubility ([1]; pH 4.5 buffer, pH 4.5, aqueous buffer): < 0.1 µg/mL
- solubility ([1]; pH 6.8 buffer, pH 6.8, aqueous buffer): < 0.1 µg/mL
- solubility ([1]; pH 7.4 buffer solution, pH 7.4, aqueous buffer): < 0.1 µg/mL
- solubility ([1]; water): < 0.1 µg/mL
- Hygroscopicity (in words) [2]: moderately hygroscopic
- Crystalline form after DVS ([2]; after dynamic vapor sorption): changed to the Crystalline Form A*
- Time at which solid form is still stable by XRPD ([6]; 25° C./60% RH): ≥ 6 months
- Optical purity change [6, 9]: no optical purity changes
- F ([7]; 1 mpk IV (reference)): 100%
- AUC(0-t) ([7]; 5 mpk PO, 5 mg/kg): 5716 ng·h/mL
- half-life ([7]; both sexes, rat, plasma, po, 5 mg/kg, 5 mpk PO): 176 min
- F ([8]; 0.5 mpk IV (reference)): 100%
- F ([8]; 5 mpk PO): 34%
- AUC(0-t) [8, 10]: 6870 ng·h/mL
- clearance [8, 10]: 1.22 mL/min/kg
- half-life [8, 10]: 660 min
- Vd ([8]; both sexes, beagle, dog, plasma, 0.5 mg/kg, 0.5 mpk IV, read-out: Vdss): 0.97 L/kg
- AUC(0-t) [8, 11]: 23400 ng·h/mL
- Cmax [8, 11]: 1120 ng/mL
- half-life [8, 11]: 660 min
- Storage time without obvious decomposition [3]: over 12 months
- Total impurities T0 ([3]; 25° C./60% RH study): 1.0%
- Chemical purity change [3, 9]: no significant chemical purity change
- Total impurities T24 ([3]; 25° C./60% RH, 24 months): 1.0%
- Time at which solid form is still stable by XRPD ([3]; 40° C./75% RH): ≥ 6 months
- Total impurities T0 ([3]; 40° C./75% RH study): 1.0%
- Total impurities T6 ([3]; 40° C./75% RH, 6 months): 1.0%
- clearance ([4]; both sexes, 1 mg/kg, 1 mpk IV): 3.15 mL/min/kg
- Vd ([4]; both sexes, 1 mg/kg, 1 mpk IV, read-out: Vdss): 1.15 L/kg
- AUC(0-t) [4, 12]: 5330 ng·h/mL
- half-life [4, 12]: 252 min
SMILES: O=C1CCc2c(Oc3ccc4c(c3)[C@H]3[C@H](NC(=O)Nc5cc(F)c(F)cc5F)[C@H]3O4)ccnc2N1 [Form A, 1-((1S,1aS,6bS)-5-((7-oxo-5,6,7,8-tetrahydro-1,8-naphthyridin-4-yl)oxy)-1a,6b-dihydro-1H-cyclopropa[b]benzofuran-1-yl)-3-(2,4,5-trifluorophenyl)urea]
- Crystalline form change by XRPD ([3]; 25° C./60% RH, 12 months): changed to the crystalline form; also recorded: from Form A to Form A*

- AUC(0-t) ([7]; 5 mpk PO, 5 mg/kg): 13134 ng·h/mL
- T1/2 ([7]; 5 mpk PO, 5 mg/kg): 2.47 h
- Cmax and AUC0-inf compared with the amorphous solid dispersions (in words) ([7]; PO): lower
- Cmax, AUC0-inf and F(%) compared to crystalline Form A (in words) ([7]; PO): higher
- Time at which solid form is still stable by XRPD (no crystalline peaks) ([3]; 40° C./75% RH): ≥ 14 days
SMILES: O=C1CCc2c(Oc3ccc4c(c3)[C@H]3[C@H](NC(=O)Nc5cc(F)c(F)cc5F)[C@H]3O4)ccnc2N1 [Form B, 1-((1S,1aS,6bS)-5-((7-oxo-5,6,7,8-tetrahydro-1,8-naphthyridin-4-yl)oxy)-1a,6b-dihydro-1H-cyclopropa[b]benzofuran-1-yl)-3-(2,4,5-trifluorophenyl)urea]

- Solubility (in words) ([1]; water and other common recrystallization solvents): very low solubilities
SMILES: O=C1CCc2c(Oc3ccc4c(c3)[C@H]3[C@H](NC(=O)N[C@@H]5[C@H]6Oc7ccc(Oc8ccnc9c8CCC(=O)N9)cc7[C@@H]56)[C@H]3O4)ccnc2N1 [Impurity-1]

Reference: patent US12582604B2, “Stable solid dispersion of a B-RAF kinase dimer inhibitor, methods of preparation, and uses therefor” (BEIGENE, LTD., priority 2019, dated 2026)
